These results are taken from ChEMBL document CHEMBL2176881, “Development of N-[4-[6-(isopropylamino)pyrimidin-4-yl]-1,3-thiazol-2-yl]-N-methyl-4-[11C]methylbenzamide for positron emission tomography imaging of metabotropic glutamate 1 receptor in monkey brain” (J Med Chem, 2012).

The species entered for one data set is Mus musculus. The data set can be described thus: Biodistribution in ddY mouse testis at 4.8 MBq/0.1 mL after 60 mins by gamma counting. Type of data set: ADME, organism-based. Conditions: in vivo, 1 h; call rule not given here.
The next data set has as its system Lung. Nature of the data set: Biodistribution in ddY mouse lung at 4.8 MBq/0.1 mL after 1 min by gamma counting. It is filed as ADME, organism-based. As to conditions: in vivo.
Data set [1] can be described thus: Drug uptake in monkey caudate assessed as distribution volume ratio at 185 to 220 MBq, iv after 10 to 90 mins by PET analysis. Type of data set: ADME, organism-based, Macaca mulatta, Caudate nucleus. Conditions: rhesus monkey, in vivo.
The next data set has as its system Brain. Nature of the data set: Drug uptake in monkey brain at 185 to 220 MBq, iv after 10 to 60 mins by PET analysis in presence of unlabeled 4-(6-chloropyrimidin-4-yl)-N-methylthiazol-2-amine. It is filed as ADME, organism-based, Macaca mulatta. Conditions: rhesus monkey, in vivo.

As for `CC(C)Nc1cc(-c2csc(N(C)C(=O)c3ccc([14CH3])cc3)n2)ncn1`, the Drug uptake is given as 0.13 % ID/g in the data set filed under Mus musculus, 5.48 % ID/g in the data set on Lung and “Not Active” with Brain. For the same molecule, the Ratio in data set [1] was 1.5.
